Measurements taken from patent publication US20040197705A1, “Cyanide compound, optical filter, and optical recording material” (ASAHI DENKA CO., LTD., priority 2003, published 2004).

Experiments:
Type in all cases: physicochemical
[1] = Evaluation of solubility in methyl ethyl ketone (MEK); details: in methyl ethyl ketone (MEK) at 20° C.; % by weight; tested from 0.1 to 0.3% by 0.05%
Procedure: The test compound was added to MEK at 20° C. in an amount corresponding to a concentration varying from 0.1 to 0.3% by weight by 0.05% by weight to see whether it dissolved or not.

[2] = Evaluation of light resistance (absorption retention halving time); details: film spin coated on polycarbonate plate; light of 55000 lux; exposure time for absorption retention to decrease to 50%
Procedure: (§1) The test compound shown in Table 2 below was dissolved in a 1:1 (by volume) mixed solvent of MEK and 2,2,3,3-tetrafluoropropan-1-ol to prepare a 1 wt % solution. The solution was applied to a 20 mm×20 mm polycarbonate plate by spin coating at 2000 rpm for 60 seconds to prepare a specimen. The UV absorption spectrum of the specimen was determined. The specimen was then irradiated with light of 55000 lux, and the exposure time required for the absorption retention (as defined in Evaluation Example 2) to decrease to 50% was measured.

[3] = UV transmission and reflection spectra of spin-coated specimens (optical recording material); details: for Reflected Light Intensity at 650 nm: expressed relatively to that at λmax; for Reflected Light Intensity at 650 nm / Reflected Light λmax: incidence angle 5°; for Reflected Light λmax: specimen as in Evaluation Example 3; for Transmitted Light λmax: specimen spin coated on polycarbonate plate as in Evaluation Example 3
Procedure: as §1
Specimens were prepared in the same manner as in Evaluation Example 3. The UV transmission spectrum and the UV reflection spectrum (incidence angle: 5°) of the specimens were measured. In Table 4, the reflected light intensity at 650 nm is expressed relatively to that at λmax.

[4] = Decomposition temperature in TG-DTA; details: 100 ml/min nitrogen stream; temperature rise 10° C./min
Procedure: Decomposition Temperature in TG-DTA (100 ml/min nitrogen stream; temperature rise: 10° C./min): 281° C.

[5] = Absorption spectrum of optical filters containing the cyanine compound (λmax, half bandwidth); details: Example 3: PET-protected glass plate with dye-containing acrylic binder layer
Procedure: A binder composition having the above formulation was applied to a 188 μm thick PET film having been surface treated for adhesion improvement with a bar coater #9 and dried at 80° C. for 30 seconds. The PET film was hot bonded to a 0.9 mm thick alkali glass plate to prepare a PET-protected glass plate having a light absorbing dye-containing binder layer between the glass substrate and the PET film.

SMILES | Solubility: insoluble at [1] | Absorption Retention Halving Time [2] [h] | Transmitted Light λmax [3] [nm] | Decomposition Temperature in TG-DTA [4] [°C] | Solubility: soluble at [1] | Half Bandwidth [5] [nm] | λmax [5] [nm] | Reflected Light Intensity at 650 nm [3] [%] | Reflected Light λmax [3] [nm]
CC1=[N+](C)c2ccccc2/C1=C1/C(=O)C(c2c(C)n(C)c3ccccc23)=C1[O-] [Comp. Compound 1, reference compound] | insoluble at 0.1% |  |  |  |  |  |  |  | 
CCCCn1c(C)c(C2=C([O-])/C(=C3/C(C)=[N+](CCCC)c4ccccc43)C2=O)c2ccccc21 [Comp. Compound 2, reference compound] | insoluble at 0.1% |  |  |  |  |  |  |  | 
Cn1cc(C2=C([O-])/C(=C/C3=[N+](C)c4ccc5ccccc5c4C34CCCCC4)C2=O)c2ccccc21 [Compound No. 4] | < 0.2% |  |  | 259 | ≥ 0.15% |  |  |  | 
CC(C)CC[N+]1=C(/C=C2\C(=O)C(c3cn(C)c4ccccc34)=C2[O-])C(C)(C)c2ccccc21 [Compound No. 5] |  | 38 | 611 | 271 | soluble at 0.3% | 29 | 587 | 95.9 | 656
Cc1[nH]c2ccc(F)cc2c1C1=C([O-])/C(=C/C2=[N+](C)c3ccccc3C2(C)C)C1=O [Compound No. 22] |  |  |  | 295 |  | 33 | 590 |  | 
Cn1c(-c2ccccc2)c(C2=C([O-])/C(=C/C3=[N+](C)c4ccccc4C3(C)C)C2=O)c2ccccc21 [Compound No. 26] |  |  |  | 273 | soluble at 0.3% | 34 | 606 |  | 

Second part, led by results:

Solubility: insoluble at [1] | Absorption Retention Halving Time [2] [h] | Transmitted Light λmax [3] [nm] | Decomposition Temperature in TG-DTA [4] [°C] | Solubility: soluble at [1] | Half Bandwidth [5] [nm] | λmax [5] [nm] | SMILES | Reflected Light Intensity at 650 nm [3] [%] | Reflected Light λmax [3] [nm]
 | 26 | 608 |  |  |  |  | CC(C)CCn1cc(C2=C([O-])/C(=C/C3=[N+](C)c4ccccc4C3(C)C)C2=O)c2ccccc21 [Compound No. 3] | 100 | 651
 |  |  | 287 | soluble at 0.3% | 30 | 602 | Cc1c(C2=C([O-])/C(=C/C3=[N+](C)c4ccccc4C3(C)C)C2=O)c2ccccc2n1C [Compound No. 14] |  | 
 |  |  |  |  | 36 | 597 | Cc1c(C2=C([O-])/C(=C/C3=[N+](C)c4ccccc4C3(C)C)C2=O)c2cc([N+](=O)[O-])ccc2n1CCC(C)C [Compound No. 23] |  | 
